Results reported in publication PMC11696576, “Next generation thiazolyl ketone inhibitors of cytosolic phospholipase A2 α for targeted cancer therapy” (Nature Communications, 2025).
“And” between values parts separate entries of the source, which are not always exact repeats. Identical values can stand only once. Like-named read-outs stand apart in the source and are kept apart here.

What was measured:
Jurkat E6.1 cells [1] = test: cell viability, CTG assay, Jurkat E6.1; assay type: cell-based, human; settings: for cell viability (0 µM = 100): listed as AVX420; for cell viability (Control = 100): Jurkat cells
Text: Data are the mean ± stdev of 3 biological replicates. […] Data are the mean ± stdev of 3 biological replicates.
Bjørn Tore Gjertsen (University of Bergen, Norway). […] The cell lines were not authenticated.

Jurkat E6.1 cells [2] = test: cell death, PI exclusion and flow cytometry, time course (Figure S9b); assay type: cell-based, human; parameters: unit not given here; settings: replicates, listed as AVX420

## CCCCCCCOc1ccc(OCC(=O)c2nc(C(=O)OC)cs2)cc1 [GK420]
Jurkat E6.1 cells [1]; Homo sapiens, Jurkat E6.1, 72 h, Jurkat E6.1, 0.125 µM, 72H, read-out: cell viability (0 µM = 100)
  viability at 0.125 µM: 87%
Jurkat E6.1 cells [1]; Homo sapiens, Jurkat E6.1, 72 h, Jurkat E6.1, 0.25 µM, 72H, read-out: cell viability (0 µM = 100)
  viability at 0.25 µM: 76%
Jurkat E6.1 cells [1]; Homo sapiens, Jurkat E6.1, 72 h, Jurkat E6.1, 0.5 µM, 72H, read-out: cell viability (0 µM = 100)
  viability at 0.5 µM: 31%
Jurkat E6.1 cells [1]; Homo sapiens, Jurkat E6.1, 72 h, Jurkat E6.1, 1 µM, 72H, read-out: cell viability (0 µM = 100)
  viability at 1 µM: 10%
Jurkat E6.1 cells [1]; Homo sapiens, Jurkat E6.1, Jurkat cells, 0.5 µM, VEH, read-out: cell viability (Control = 100)
  viability at 0.5 µM: 50%
Jurkat E6.1 cells [1]; Homo sapiens, Jurkat E6.1, Jurkat cells, 1 µM, VEH, read-out: cell viability (Control = 100)
  viability at 1 µM: 34%
Jurkat E6.1 cells [1]; Jurkat E6.1, 0.007 µM, 24H
  cell viability (0 µM = 100): 98 and 97
Jurkat E6.1 cells [1]; Jurkat E6.1, 0.007 µM, 48H
  cell viability (0 µM = 100): 98 and 97
Jurkat E6.1 cells [1]; Jurkat E6.1, 0.007 µM, 72H
  cell viability (0 µM = 100): 98
Jurkat E6.1 cells [1]; Jurkat E6.1, 0.015 µM, 48H
  cell viability (0 µM = 100): 98 and 97
Jurkat E6.1 cells [1]; Jurkat E6.1, 0.031 µM, 24H
  cell viability (0 µM = 100): 95
Jurkat E6.1 cells [1]; Jurkat E6.1, 0.031 µM, 48H
  cell viability (0 µM = 100): 98
Jurkat E6.1 cells [1]; Jurkat E6.1, 0.031 µM, 72H
  cell viability (0 µM = 100): 95
Jurkat E6.1 cells [1]; Jurkat E6.1, 0.062 µM, 24H
  cell viability (0 µM = 100): 94
Jurkat E6.1 cells [1]; Jurkat E6.1, 0.062 µM, 48H
  cell viability (0 µM = 100): 93
Jurkat E6.1 cells [1]; Jurkat E6.1, 0.062 µM, 72H
  cell viability (0 µM = 100): 98
Jurkat E6.1 cells [1]; Jurkat E6.1, 0.25 µM, 72H
  cell viability (0 µM = 100): 61
Jurkat E6.1 cells [1]; Jurkat E6.1, 0.5 µM, 24H
  cell viability (0 µM = 100): 41 and 43
Jurkat E6.1 cells [1]; Jurkat E6.1, 0.5 µM, 72H
  cell viability (0 µM = 100): 30 and 21
Jurkat E6.1 cells [1]; Jurkat E6.1, 1 µM, 24H
  cell viability (0 µM = 100): 19 and 21
Jurkat E6.1 cells [1]; Jurkat E6.1, 1 µM, 48H
  cell viability (0 µM = 100): 14 and 13
Jurkat E6.1 cells [1]; Jurkat E6.1, 1 µM, 72H
  cell viability (0 µM = 100): 8
Jurkat E6.1 cells [1]; Jurkat E6.1, 2 µM, 48H
  cell viability (0 µM = 100): 7
Jurkat E6.1 cells [1]; Jurkat E6.1, 4 µM, 48H
  cell viability (0 µM = 100): 3
Jurkat E6.1 cells [1]; Jurkat E6.1, CTG
  effect on viability: strong dose-dependent effect
Jurkat E6.1 cells [1]; 0.5 µM, VEH, listed as AVX420, 0.5 µM
  cell viability (Control = 100): 46 and 55
Jurkat E6.1 cells [1]; 1 µM, VEH, listed as AVX420, 1 µM
  cell viability (Control = 100): 21
Jurkat E6.1 cells [2]; 1h
  PI Negative (Figure S9b): 92 and 90
  PI Positive (Figure S9b): 8 and 10
Jurkat E6.1 cells [2]; 2h
  PI Negative (Figure S9b): 88 and 92
  PI Positive (Figure S9b): 12 and 8
Jurkat E6.1 cells [2]; 4h
  PI Negative (Figure S9b): 94 and 93 and 92
  PI Positive (Figure S9b): 6 and 7 and 8
Jurkat E6.1 cells [2]; 8h
  PI Negative (Figure S9b): 91 (2×) and 87 and 88
  PI Positive (Figure S9b): 9 (2×) and 13 and 12
Jurkat E6.1 cells [2]; 12h
  PI Negative (Figure S9b): 80 and 83 and 82
  PI Positive (Figure S9b): 20 and 17 and 18
Jurkat E6.1 cells [2]; 16h
  PI Negative (Figure S9b): 70 and 75 and 71
  PI Positive (Figure S9b): 30 and 25 and 29
Jurkat E6.1 cells [2]; 24h
  PI Negative (Figure S9b): 65 and 67 and 73
  PI Positive (Figure S9b): 35 and 33 and 27
